Experimental data as given in patent US6517836B1, “Nitrophenylaziridine compounds and their use as prodrugs” (Auckland Uniservices Limited, priority 1998, dated 2003).

tested on: Chinese hamster fibroblast NR− line (T78-1), V79/4 transfected with an empty shuttle vector; assay: Cytotoxicity, 18 h drug exposure, V79 NR− line (T78-1); assay type: cell-based; conditions: Cricetulus griseus; T78-1 cells, 18 h drug exposure; read-out: V-79 NR− IC50
Text: (§1) The Chinese hamster fibroblast NR− line (T78-1) is a V79/4 Chinese hamster fibroblast transfected with an empty shuttle vector, while the NR+ line (T79-A3) is the corresponding NR transfectant. The human colon carcinoma NR− line (WIDR) is wild-type, while the NR+ line (WC14 10) is the corresponding NR transfectant. The human ovarian carcinoma NR− line (SKOV3) is wild-type, while the NR+ line (SC3.2) is the corresponding NR transfectant. EMT6 is a mouse mammary carcinoma line, and EN2A is the NR-transformed counterpart.

Row | Structure (SMILES) | IC50 [µM]
1 | NC(=O)c1c([N+](=O)[O-])ccc(N2CC2)c1[N+](=O)[O-] [Compound 13, 3-(aziridin-1-yl)-2,6-dinitrobenzamide] | 437
2 | NC(=O)c1ccc([N+](=O)[O-])c(N2CC2)c1 [Compound 9, 3-(aziridin-1-yl)-4-nitrobenzamide] | 108
3 | NC(=O)c1cc(N2CC2)ccc1[N+](=O)[O-] [Compound 11, 5-(aziridin-1-yl)-2-nitrobenzamide] | 121
4 | CS(=O)(=O)c1cc([N+](=O)[O-])c(C(N)=O)cc1N1CC1 [Compound 12, 5-(aziridin-1-yl)-4-(methylsulfonyl)-2-nitrobenzamide] | 419

tested on: Chinese hamster fibroblast NR+ line (T79-A3), NR transfectant; assay: Cytotoxicity, 18 h drug exposure, V79 NR+ line (T79-A3); assay type: cell-based; conditions: Cricetulus griseus, Fibroblast; T79-A3 cells, 18 h drug exposure; read-out: V-79 NR+ IC50
Text: as §1

Row | Structure (SMILES) | IC50 [µM]
5 | NC(=O)c1c([N+](=O)[O-])ccc(N2CC2)c1[N+](=O)[O-] [Compound 13, 3-(aziridin-1-yl)-2,6-dinitrobenzamide] | 135
6 | NC(=O)c1ccc([N+](=O)[O-])c(N2CC2)c1 [Compound 9, 3-(aziridin-1-yl)-4-nitrobenzamide] | 62
7 | NC(=O)c1cc(N2CC2)ccc1[N+](=O)[O-] [Compound 11, 5-(aziridin-1-yl)-2-nitrobenzamide] | 81
8 | CS(=O)(=O)c1cc([N+](=O)[O-])c(C(N)=O)cc1N1CC1 [Compound 12, 5-(aziridin-1-yl)-4-(methylsulfonyl)-2-nitrobenzamide] | 40

same assay, conditions: T78-1 vs T79-A3; inter-experiment average

Row | Structure (SMILES) | V-79 ratio of IC50s
9 | NC(=O)c1c([N+](=O)[O-])ccc(N2CC2)c1[N+](=O)[O-] [Compound 13, 3-(aziridin-1-yl)-2,6-dinitrobenzamide] | 3.8
10 | NC(=O)c1ccc([N+](=O)[O-])c(N2CC2)c1 [Compound 9, 3-(aziridin-1-yl)-4-nitrobenzamide] | 1.4
11 | NC(=O)c1cc(N2CC2)ccc1[N+](=O)[O-] [Compound 11, 5-(aziridin-1-yl)-2-nitrobenzamide] | 1.5
12 | CS(=O)(=O)c1cc([N+](=O)[O-])c(C(N)=O)cc1N1CC1 [Compound 12, 5-(aziridin-1-yl)-4-(methylsulfonyl)-2-nitrobenzamide] | 12

tested on: human colon carcinoma NR− line (WIDR), wild-type; assay: Cytotoxicity, 18 h drug exposure, WiDr NR− line; assay type: cell-based; conditions: Homo sapiens; WIDR cells, 18 h drug exposure; read-out: WiDr NR− IC50
Text: as §1

Row | Structure (SMILES) | IC50 [µM]
13 | NC(=O)c1c([N+](=O)[O-])ccc(N2CC2)c1[N+](=O)[O-] [Compound 13, 3-(aziridin-1-yl)-2,6-dinitrobenzamide] | 312
14 | NC(=O)c1ccc([N+](=O)[O-])c(N2CC2)c1 [Compound 9, 3-(aziridin-1-yl)-4-nitrobenzamide] | 102
15 | NC(=O)c1cc(N2CC2)ccc1[N+](=O)[O-] [Compound 11, 5-(aziridin-1-yl)-2-nitrobenzamide] | 126
16 | CS(=O)(=O)c1cc([N+](=O)[O-])c(C(N)=O)cc1N1CC1 [Compound 12, 5-(aziridin-1-yl)-4-(methylsulfonyl)-2-nitrobenzamide] | 224

tested on: human colon carcinoma NR+ line (WC14 10), NR transfectant; assay: Cytotoxicity, 18 h drug exposure, WiDr NR+ line (WC14 10); assay type: cell-based; conditions: Homo sapiens, WiDr; WC14 10 cells, 18 h drug exposure; read-out: WiDr NR+ IC50
Text: as §1

Row | Structure (SMILES) | IC50 [µM]
17 | NC(=O)c1c([N+](=O)[O-])ccc(N2CC2)c1[N+](=O)[O-] [Compound 13, 3-(aziridin-1-yl)-2,6-dinitrobenzamide] | 58
18 | NC(=O)c1ccc([N+](=O)[O-])c(N2CC2)c1 [Compound 9, 3-(aziridin-1-yl)-4-nitrobenzamide] | 62
19 | NC(=O)c1cc(N2CC2)ccc1[N+](=O)[O-] [Compound 11, 5-(aziridin-1-yl)-2-nitrobenzamide] | 89
20 | CS(=O)(=O)c1cc([N+](=O)[O-])c(C(N)=O)cc1N1CC1 [Compound 12, 5-(aziridin-1-yl)-4-(methylsulfonyl)-2-nitrobenzamide] | 22

same assay, conditions: WIDR vs WC14 10; inter-experiment average

Row | Structure (SMILES) | WiDr ratio of IC50s
21 | NC(=O)c1c([N+](=O)[O-])ccc(N2CC2)c1[N+](=O)[O-] [Compound 13, 3-(aziridin-1-yl)-2,6-dinitrobenzamide] | 5.9
22 | NC(=O)c1ccc([N+](=O)[O-])c(N2CC2)c1 [Compound 9, 3-(aziridin-1-yl)-4-nitrobenzamide] | 1.6
23 | NC(=O)c1cc(N2CC2)ccc1[N+](=O)[O-] [Compound 11, 5-(aziridin-1-yl)-2-nitrobenzamide] | 1.4
24 | CS(=O)(=O)c1cc([N+](=O)[O-])c(C(N)=O)cc1N1CC1 [Compound 12, 5-(aziridin-1-yl)-4-(methylsulfonyl)-2-nitrobenzamide] | 10

tested on: human ovarian carcinoma NR− line (SKOV3), wild-type; assay: Cytotoxicity, 18 h drug exposure, SKOV3 NR− line; assay type: cell-based; conditions: Homo sapiens, SK-OV-3; SKOV3 cells, 18 h drug exposure; read-out: SKOV NR− IC50
Text: as §1

Row | Structure (SMILES) | IC50 [µM]
25 | NC(=O)c1c([N+](=O)[O-])ccc(N2CC2)c1[N+](=O)[O-] [Compound 13, 3-(aziridin-1-yl)-2,6-dinitrobenzamide] | 584
26 | NC(=O)c1ccc([N+](=O)[O-])c(N2CC2)c1 [Compound 9, 3-(aziridin-1-yl)-4-nitrobenzamide] | 93
27 | NC(=O)c1cc(N2CC2)ccc1[N+](=O)[O-] [Compound 11, 5-(aziridin-1-yl)-2-nitrobenzamide] | 129
28 | CS(=O)(=O)c1cc([N+](=O)[O-])c(C(N)=O)cc1N1CC1 [Compound 12, 5-(aziridin-1-yl)-4-(methylsulfonyl)-2-nitrobenzamide] | 393

tested on: human ovarian carcinoma NR+ line (SC3.2), NR transfectant; assay: Cytotoxicity, 18 h drug exposure, SKOV NR+ line (SC3.2); assay type: cell-based; conditions: Homo sapiens; SC3.2 cells, 18 h drug exposure; read-out: SKOV NR+ IC50
Text: as §1

Row | Structure (SMILES) | IC50 [µM]
29 | NC(=O)c1c([N+](=O)[O-])ccc(N2CC2)c1[N+](=O)[O-] [Compound 13, 3-(aziridin-1-yl)-2,6-dinitrobenzamide] | 66
30 | NC(=O)c1ccc([N+](=O)[O-])c(N2CC2)c1 [Compound 9, 3-(aziridin-1-yl)-4-nitrobenzamide] | 61
31 | NC(=O)c1cc(N2CC2)ccc1[N+](=O)[O-] [Compound 11, 5-(aziridin-1-yl)-2-nitrobenzamide] | 102
32 | CS(=O)(=O)c1cc([N+](=O)[O-])c(C(N)=O)cc1N1CC1 [Compound 12, 5-(aziridin-1-yl)-4-(methylsulfonyl)-2-nitrobenzamide] | 22

same assay, conditions: SKOV3 vs SC3.2; inter-experiment average

Row | Structure (SMILES) | SKOV ratio of IC50s
33 | NC(=O)c1c([N+](=O)[O-])ccc(N2CC2)c1[N+](=O)[O-] [Compound 13, 3-(aziridin-1-yl)-2,6-dinitrobenzamide] | 9.5
34 | NC(=O)c1ccc([N+](=O)[O-])c(N2CC2)c1 [Compound 9, 3-(aziridin-1-yl)-4-nitrobenzamide] | 1.6
35 | NC(=O)c1cc(N2CC2)ccc1[N+](=O)[O-] [Compound 11, 5-(aziridin-1-yl)-2-nitrobenzamide] | 1.4
36 | CS(=O)(=O)c1cc([N+](=O)[O-])c(C(N)=O)cc1N1CC1 [Compound 12, 5-(aziridin-1-yl)-4-(methylsulfonyl)-2-nitrobenzamide] | 19

tested on: EMT6 mouse mammary carcinoma line; assay: Cytotoxicity, 18 h drug exposure, EMT6 NR− line; assay type: cell-based; conditions: Mus musculus; EMT6 cells, 18 h drug exposure; read-out: EMT6 NR− IC50
Text: as §1

Row | Structure (SMILES) | IC50 [µM]
37 | NC(=O)c1c([N+](=O)[O-])ccc(N2CC2)c1[N+](=O)[O-] [Compound 13, 3-(aziridin-1-yl)-2,6-dinitrobenzamide] | 287

tested on: EN2A, NR-transformed counterpart of EMT6; assay: Cytotoxicity, 18 h drug exposure, EMT6 NR+ line (EN2A); assay type: cell-based, mouse; conditions: EMT6 vs EN2A; inter-experiment average
Text: as §1

Row | Structure (SMILES) | EMT6 ratio of IC50s
38 | NC(=O)c1c([N+](=O)[O-])ccc(N2CC2)c1[N+](=O)[O-] [Compound 13, 3-(aziridin-1-yl)-2,6-dinitrobenzamide] | 10

same assay, conditions: Mus musculus, EMT6; EN2A cells, 18 h drug exposure; read-out: EMT6 NR+ IC50

Row | Structure (SMILES) | IC50 [µM]
39 | NC(=O)c1c([N+](=O)[O-])ccc(N2CC2)c1[N+](=O)[O-] [Compound 13, 3-(aziridin-1-yl)-2,6-dinitrobenzamide] | 27
